# The source made the active and inactive calls.
# Assays:
# Paired box protein Pax-8 = Paired box protein Pax-8 (Homo sapiens, UniProt Q06710); assay: inhibitors of PAX8-driven TPO luciferase reporter, dose response, RMG-I cells, cherry-pick (AID 687027); format: functional, cell-based;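 also: luciferase reporter driven by Pax8 target thyroperoxidase promoter measured by SteadyGlo luminescence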
# [1] = NIH-3T3 fibroblast cytotoxicity, dose response, cytotoxicity control, cell-based, fluorescence, Alamar Blue, secondary assay (AID 2327); format: functional;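 also: NIH-3T3 mouse fibroblasts cultured with fluconazole at 8 µg/mL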
# [2] = molecular target: FAD-linked sulfhydryl oxidase ALR (Homo sapiens, UniProt P55789); assay: inhibitors of human ALR sulfhydryl oxidase, dose response, biochemical, H2O2 detection, luminescence, cherry-pick (AID 493248)
# [3] = molecular target: T1, Rac GTPase-activating protein 1 (Homo sapiens, UniProt Q9H0H5); assay: MgcRacGAP GTPase-activating activity inhibitors, confirmation, biochemical, ADP Hunter fluorescence, primary and confirmatory (AID 624330); format: functional
# T1 sequence (Q9H0H5 whole entry): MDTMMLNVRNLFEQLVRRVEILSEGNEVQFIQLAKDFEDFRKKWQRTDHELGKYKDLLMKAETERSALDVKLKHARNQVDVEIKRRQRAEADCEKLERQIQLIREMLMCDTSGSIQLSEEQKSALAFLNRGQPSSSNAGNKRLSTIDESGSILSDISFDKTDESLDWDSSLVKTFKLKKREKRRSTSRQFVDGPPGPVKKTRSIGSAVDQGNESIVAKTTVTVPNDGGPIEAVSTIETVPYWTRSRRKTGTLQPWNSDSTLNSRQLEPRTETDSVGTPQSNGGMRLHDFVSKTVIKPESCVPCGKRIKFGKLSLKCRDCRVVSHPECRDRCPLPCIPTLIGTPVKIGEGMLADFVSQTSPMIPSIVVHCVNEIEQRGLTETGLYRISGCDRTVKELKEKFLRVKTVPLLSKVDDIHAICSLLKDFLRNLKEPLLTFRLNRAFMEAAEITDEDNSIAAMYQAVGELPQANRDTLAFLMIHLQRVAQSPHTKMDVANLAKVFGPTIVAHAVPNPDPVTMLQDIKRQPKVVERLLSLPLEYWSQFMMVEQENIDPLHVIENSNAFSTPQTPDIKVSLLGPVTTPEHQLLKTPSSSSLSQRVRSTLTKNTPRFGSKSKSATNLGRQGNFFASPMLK
# H9c2 = assay: cells; format: functional, cell-based; conditions: Rattus norvegicus, H9c2, Myocardium;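 also: confirmatory concentration-response retest of ultra-high-throughput screening hits for modulation of myocardial damage; cell death induced by hydrogen peroxide oxidative stress; compound pretreatment for 60 min then peroxide exposure for 2 h; potency is for protecting the cells against peroxide damage rather than for killing them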
# [4] = molecular target: T2, Corticotropin-releasing factor receptor 2/Corticotropin-releasing factor-binding protein (Homo sapiens, UniProt P24387+Q13324); assay: activators of CRF receptor 2 with binding protein – uHTS hits, confirmation (AID 602473); format: functional; conditions: read-out: EC50_Mean
# T2 sequence (Q13324 whole entry): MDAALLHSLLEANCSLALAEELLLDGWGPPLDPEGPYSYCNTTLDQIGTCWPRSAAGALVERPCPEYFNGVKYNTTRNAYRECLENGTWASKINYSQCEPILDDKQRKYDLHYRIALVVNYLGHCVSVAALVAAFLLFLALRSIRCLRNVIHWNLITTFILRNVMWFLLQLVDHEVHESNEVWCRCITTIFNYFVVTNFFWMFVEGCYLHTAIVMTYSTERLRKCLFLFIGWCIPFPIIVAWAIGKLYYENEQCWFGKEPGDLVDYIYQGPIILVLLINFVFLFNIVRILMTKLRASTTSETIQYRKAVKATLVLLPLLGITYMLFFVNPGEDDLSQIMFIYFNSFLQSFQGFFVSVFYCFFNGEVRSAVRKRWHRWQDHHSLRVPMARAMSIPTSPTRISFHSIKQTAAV
# T2 sequence (P24387 whole entry): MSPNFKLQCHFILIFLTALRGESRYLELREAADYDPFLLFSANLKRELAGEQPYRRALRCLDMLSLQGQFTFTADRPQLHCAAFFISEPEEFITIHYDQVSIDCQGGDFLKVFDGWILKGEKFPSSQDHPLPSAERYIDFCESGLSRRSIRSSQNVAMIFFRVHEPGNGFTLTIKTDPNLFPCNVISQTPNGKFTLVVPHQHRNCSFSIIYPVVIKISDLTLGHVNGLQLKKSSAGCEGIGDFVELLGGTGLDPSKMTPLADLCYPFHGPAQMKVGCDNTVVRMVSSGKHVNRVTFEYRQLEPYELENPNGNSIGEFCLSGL
# [5] = molecular target: T2, Corticotropin-releasing factor receptor 2/Corticotropin-releasing factor-binding protein; assay: Dose Response confirmation of uHTS hits for small molecule antagonists of the CRF-binding protein and CRF-R2 receptor complex.; format: functional; conditions: read-out: IC50_Mean
# Cytochrome P450 3A4 = Cytochrome P450 3A4 (Homo sapiens, UniProt P08684);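 also: CYP3A4 tested as one member of a cytochrome P450 panel screen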
# Cytochrome P450 2C19 = Cytochrome P450 2C19 (Homo sapiens, UniProt P33261); assay: Cytochrome panel assay with activity outcomes. Panel member name: p450-cyp2c19 Compounds with AC50 equal or less than 10 uM are considered active; format: functional; conditions: read-out: AC50
# Cytochrome P450 2C9 = Cytochrome P450 2C9 (Homo sapiens, UniProt P11712)
# [6] = control 3'UTR Renilla luciferase suppression, dose response, counter-screen for Shn3 inhibitor project, cell-based, Clone20-Shn3RL, cherry-picked (AID 624133); format: functional
# [7] = Shn3 3'UTR reporter inhibitors, dose response, cell-based, Clone20 osteoblasts, firefly luciferase, cherry-picked (AID 624132); format: functional;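 also: firefly luciferase luminescence from reporter carrying the Shn3 3'UTR in osteoblasts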
# INS1 = assay: beta cell apoptosis inhibitors, cytokine rescue, dose response, luminescence, retest (AID 449756); format: functional, cell-based; conditions: Rattus norvegicus;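 also: cell death triggered by IL-1 beta plus TNF-alpha plus IFN-gamma mixture; protective hits raise ATP signal compared with cytokine alone wells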
# [8] = HEp-2 cell cytotoxicity, dose response, cytotoxicity control for RSV inhibitor project, HTS (AID 2410); format: functional; conditions: human respiratory syncytial virus
# Sequence of FAD-linked sulfhydryl oxidase ALR (P55789 whole entry): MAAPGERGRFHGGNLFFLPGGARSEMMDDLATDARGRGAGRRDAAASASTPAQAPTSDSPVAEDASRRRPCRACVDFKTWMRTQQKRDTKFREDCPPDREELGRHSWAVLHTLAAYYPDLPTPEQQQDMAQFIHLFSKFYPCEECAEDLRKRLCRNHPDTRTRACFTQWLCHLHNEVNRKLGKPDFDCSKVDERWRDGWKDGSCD
# Sequence of Paired box protein Pax-8 (Q06710 whole entry): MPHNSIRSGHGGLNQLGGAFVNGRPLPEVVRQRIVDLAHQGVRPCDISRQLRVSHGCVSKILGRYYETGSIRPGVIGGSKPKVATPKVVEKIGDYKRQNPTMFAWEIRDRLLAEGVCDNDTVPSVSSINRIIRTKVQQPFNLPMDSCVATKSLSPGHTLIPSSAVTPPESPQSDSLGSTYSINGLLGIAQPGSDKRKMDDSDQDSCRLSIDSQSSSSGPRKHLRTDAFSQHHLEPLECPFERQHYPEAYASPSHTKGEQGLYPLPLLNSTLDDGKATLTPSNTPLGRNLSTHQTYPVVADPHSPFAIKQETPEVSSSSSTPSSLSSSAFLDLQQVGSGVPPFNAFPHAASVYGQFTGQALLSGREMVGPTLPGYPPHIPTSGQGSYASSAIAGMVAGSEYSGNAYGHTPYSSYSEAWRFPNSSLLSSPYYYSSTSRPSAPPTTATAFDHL
# Sequence of Cytochrome P450 2C19 (P33261 whole entry): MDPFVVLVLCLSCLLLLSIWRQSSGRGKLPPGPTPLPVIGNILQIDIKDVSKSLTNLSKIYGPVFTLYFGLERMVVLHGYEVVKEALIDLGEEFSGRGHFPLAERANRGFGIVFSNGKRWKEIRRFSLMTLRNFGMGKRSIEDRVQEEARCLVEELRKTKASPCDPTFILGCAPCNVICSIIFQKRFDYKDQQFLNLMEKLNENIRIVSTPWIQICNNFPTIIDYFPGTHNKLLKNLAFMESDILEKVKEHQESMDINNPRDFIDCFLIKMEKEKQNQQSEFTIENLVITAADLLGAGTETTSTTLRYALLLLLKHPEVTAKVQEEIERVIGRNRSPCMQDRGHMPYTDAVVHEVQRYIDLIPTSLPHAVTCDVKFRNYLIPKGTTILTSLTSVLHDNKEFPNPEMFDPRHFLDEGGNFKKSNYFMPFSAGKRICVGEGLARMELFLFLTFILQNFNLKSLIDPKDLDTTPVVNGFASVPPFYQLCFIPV
# Sequence of Cytochrome P450 2C9 (P11712 whole entry): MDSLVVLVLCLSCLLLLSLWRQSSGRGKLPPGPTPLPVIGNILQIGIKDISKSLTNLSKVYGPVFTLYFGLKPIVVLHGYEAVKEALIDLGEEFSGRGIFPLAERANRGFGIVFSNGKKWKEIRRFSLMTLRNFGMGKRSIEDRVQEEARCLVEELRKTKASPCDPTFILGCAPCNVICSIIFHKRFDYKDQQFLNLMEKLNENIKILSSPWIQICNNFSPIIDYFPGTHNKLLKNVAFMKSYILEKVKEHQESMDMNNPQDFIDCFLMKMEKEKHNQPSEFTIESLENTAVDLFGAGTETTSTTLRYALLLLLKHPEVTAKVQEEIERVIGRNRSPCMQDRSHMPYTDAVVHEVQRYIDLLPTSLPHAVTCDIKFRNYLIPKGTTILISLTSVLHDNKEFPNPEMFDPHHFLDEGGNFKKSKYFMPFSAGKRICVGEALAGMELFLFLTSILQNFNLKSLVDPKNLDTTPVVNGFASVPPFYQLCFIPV
# Sequence of Cytochrome P450 3A4 (P08684 whole entry): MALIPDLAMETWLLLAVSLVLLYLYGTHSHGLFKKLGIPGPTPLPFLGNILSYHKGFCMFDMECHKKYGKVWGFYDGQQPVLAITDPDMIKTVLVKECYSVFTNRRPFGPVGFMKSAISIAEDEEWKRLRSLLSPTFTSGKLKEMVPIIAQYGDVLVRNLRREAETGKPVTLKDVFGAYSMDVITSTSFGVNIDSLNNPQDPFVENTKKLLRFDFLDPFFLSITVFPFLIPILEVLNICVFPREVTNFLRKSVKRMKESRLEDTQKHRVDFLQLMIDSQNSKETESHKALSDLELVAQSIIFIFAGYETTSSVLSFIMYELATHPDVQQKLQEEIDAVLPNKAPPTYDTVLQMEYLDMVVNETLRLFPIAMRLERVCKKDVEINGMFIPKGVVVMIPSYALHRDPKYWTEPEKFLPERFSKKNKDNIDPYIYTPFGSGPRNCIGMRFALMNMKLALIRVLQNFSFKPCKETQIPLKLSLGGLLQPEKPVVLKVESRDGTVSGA
structure (smiles),measurement,setting,value
COc1ccc(C(=O)CCS(=O)(=O)c2ccc(C)cc2)cc1OC,AC50,Paired box protein Pax-8,9.82 µM (active)
COc1ccc(C2=CSC3=NNC4(CCCCC4)NN23)cc1,EC50,[1],38.8 µM (active)
same,AC50,[2],1.42 µM (active)
COc1cc(OC)cc(C(=O)N2CCN=C2SCc2cccnc2)c1,AC50,[2],0.154 µM (active)
Cc1nc(SCc2ccc(C(=O)O)cc2)nc2c1CCCC2,AC50,[2],3.29 µM (active)
O=C(COc1ccc2ccccc2c1)N1CCN(Cc2ccncc2)CC1,IC50,[3],62.2 µM (active)
COc1ccc(NC(=O)CC2C(=O)Nc3ccccc3N2CC(=O)N2CCCC2)cc1 (stereo not drawn),AC50,[2],6.65 µM (active)
COc1ccc(CCNC(=O)c2cc3c(C)nccc3nc2O)cc1OC,IC50,H9c2,> 79 µM (inactive)
COc1cc(C)cc2oc(=O)c(CC(=O)N3CCN(C(=O)C4COc5ccccc5O4)CC3)c(C)c12 (stereo not drawn),IC50,H9c2,> 79 µM (inactive)
Cc1ccc(-c2nnc(O)c3ccccc23)cc1S(=O)(=O)NCCN1CCOCC1,IC50,H9c2,14.2 µM (active)
CCCS(=O)(=O)N1CCN(C2Cc3ccccc3C2)CC1,IC50,[3],180 µM (active)
COc1cccc(C(=O)Nc2nnc(-c3ccc(Cl)cc3)o2)c1,IC50,H9c2,> 79 µM (inactive)
CC(=O)Oc1cc2oc(=O)cc(C)c2cc1Cl,AC50,[2],2.62 µM (active)
CCOC(=O)COc1cc(OCC(=O)OCC)c2c3c(c(=O)oc2c1)CCCC3,IC50,H9c2,10.5 µM (active)
Cc1ccc(S(=O)(=O)CCC(=O)Nc2cc(Cl)ccc2-n2cncn2)cc1,EC50,[4],> 53 µM (inactive)
same,IC50,[5],> 47.1 µM (inactive)
CC1(c2ccccc2)NC(=O)N(CC(=O)Nc2ccc(S(=O)(=O)Nc3ncccn3)cc2)C1=O (stereo not drawn),AC50,[2],0.675 µM (active)
CC(=O)NC(C)C(c1cccs1)N1CCN(c2ccccc2)CC1 (stereo not drawn),AC50,Cytochrome P450 3A4,39.8 µM (inconclusive)
same,AC50,Cytochrome P450 2C19,3.98 µM (inconclusive)
same,AC50,[2],0.273 µM (active)
same,AC50,Cytochrome P450 2C9,11.2 µM (inconclusive)
O=C1COc2ccc(-c3nnc(O)c4ccccc34)cc2N1,IC50,H9c2,5.26 µM (active)
C=CCn1c(SCc2ccc(F)cc2)nc2c1c(=O)[nH]c(=O)n2C,EC50,[4],> 53 µM (inactive)
same,IC50,[5],> 47.1 µM (inactive)
Cc1ccc(-c2nn(C)c(=O)c3ccccc23)cc1CO,EC50,[4],> 53 µM (inactive)
same,IC50,[5],> 47.1 µM (inactive)
O=C(CN1CCN(C(=O)c2ccco2)CC1)Nc1c2c(nc3c1CCC3)CCCC2,EC50,[4],> 53 µM (inactive)
same,IC50,[5],> 47.1 µM (inactive)
CCOc1cc(/C=C(\C#N)C(=O)NCc2cccnc2)ccc1O,IC50,[3],42.4 µM (active)
COc1cc(-c2cc(C(=O)O)c3c(OC)c(OC)c(OC)cc3n2)ccc1O,IC50,[3],126 µM (active)
CN(CC(=O)Nc1ccccc1Br)C(=O)CCc1nc(O)c2ccccc2n1,IC50,H9c2,12.7 µM (active)
Cc1cc(NC(=O)COC(=O)COc2ccc3c4c(c(=O)oc3c2)CCC4)no1,IC50,H9c2,13.1 µM (active)
COc1ccc(-c2cc(C(=O)N3CCN(c4ccccc4)CC3)c3ccccc3n2)cc1OC,IC50,H9c2,63.6 µM (inactive)
COc1ccc(C2NC(=O)CS2)cc1OC (stereo not drawn),AC50,[2],0.093 µM (active)
CSc1ccc(CN2CCN(Cc3ccccc3Cl)CC2)cc1,IC50,[3],95.1 µM (active)
COc1cc(CNc2ccc(C)c(C)c2)cc(OC)c1OC,AC50,[2],9.13 µM (active)
Cn1c(C(=O)Nc2ccc3c(c2)OCCO3)cc2c(=O)n(C)c3ccccc3c21,IC50,H9c2,> 79 µM (inactive)
COc1ccccc1CNc1ncc(-c2ccccc2)n1C,IC50,[3],49.5 µM (active)
CN(CC(=O)NCc1ccccc1)Cc1cccc(F)c1,IC50,[3],67 µM (active)
COc1cc2nc(O)n3nc(-c4ccccc4)nc3c2cc1OC,IC50,H9c2,> 79 µM (inactive)
Cc1ccc(S(=O)(=O)c2nc(S(=O)(=O)c3ccccc3)sc2N2CCN(C)CC2)cc1,AC50,Paired box protein Pax-8,7.56 µM (active)
O=C(c1cccs1)N1CCN(Cc2ccncc2)CC1,IC50,[3],88.5 µM (active)
CN(C)CCNC(C(=O)Nc1cccc(C(F)(F)F)c1)c1ccccc1 (stereo not drawn),IC50,[3],76.5 µM (active)
CCN1C(=O)c2cccc3c(S(=O)(=O)Nc4ccc(O)c(C(=O)O)c4)ccc1c23,AC50,[2],1.55 µM (active)
CC(=O)N1c2ccc(S(=O)(=O)N3CCC(C(=O)N4CCN(c5cc(Cl)ccc5C)CC4)CC3)cc2CC1C (stereo not drawn),AC50,[6],6.67 µM (active)
same,AC50,[7],3.1 µM (active)
COc1cc2ncnc(N[C@H](C)c3ccccc3)c2cc1OC,AC50,[6],22.7 µM (active)
same,AC50,[7],8.72 µM (active)
O=C1CCC(C(=O)Nc2ccccc2N2CCCC2)=NN1,AC50,[2],3.7 µM (active)
COc1cc2c(C#CCCCO)c(-c3ccsc3)oc(=O)c2cc1OC,IC50,H9c2,> 79 µM (inactive)
O=C(CCc1nc(O)c2ccccc2n1)NNC(=O)c1ccc(Cl)cc1,IC50,H9c2,> 79 µM (inactive)
COc1cccc(-c2cnc3c(NC=O)cc(-c4cccc(NC(C)=O)c4)cn23)c1,IC50,H9c2,> 79 µM (inactive)
CCN(CC(=O)Nc1ccc(OC)cc1)C(=O)CCc1nc(O)c2ccccc2n1,IC50,H9c2,> 79 µM (inactive)
CCN(CC)c1ccc(/C=N/Nc2nc(C)cc(C)n2)c(O)c1,IC50,[3],62.8 µM (active)
same,AC50,INS1,2.84 µM (active)
O=C(N/N=C/c1cn(-c2ccccc2)nc1-c1cccs1)c1ccccc1F,CC50,[8],25.6 µM (active)
same,IC50,H9c2,> 79 µM (inactive)
Cc1nc2c(c(=O)n1CCC1=CCCCC1)c1nc3ccccc3nc1n2/N=C/c1ccccc1,IC50,H9c2,> 79 µM (inactive)
CCCCCCn1c(C)nc2c(c1=O)c1nc3ccccc3nc1n2/N=C/c1ccco1,IC50,H9c2,23.3 µM (active)
COc1cc(/C=N/Nc2cc(C)nc(NS(=O)(=O)c3ccccc3)n2)ccc1O,IC50,[3],37.8 µM (active)
COc1ccc(OCC(=O)N/N=C/c2cccc3cccnc23)cc1,IC50,H9c2,> 79 µM (inactive)
CCN(CC)c1ccc(NC(=O)COC(=O)CCc2cc(OC)c(OC)c(OC)c2)cc1,IC50,[3],81.1 µM (active)
C[C@@H]1CN([C@@H](C)CO)C(=O)c2cc(NC(=O)Nc3ccc(C(F)(F)F)cc3)ccc2O[C@@H](C)CCCCO[C@H]1CN(C)Cc1ccc(Cl)c(Cl)c1,AC50,Paired box protein Pax-8,9.66 µM (active)
C[C@@H]1CCCCO[C@@H](CN(C)Cc2ccc(C(F)(F)F)cc2)[C@H](C)CN([C@H](C)CO)C(=O)c2cc(NC(=O)Cc3ccccc3)ccc2O1,AC50,Paired box protein Pax-8,4.62 µM (active)
COc1cccc(/C=N/NC(=O)NC2CCCCC2)c1O,AC50,[2],3.71 µM (active)
COc1cc(/C=N/NC(=O)c2cc(-c3ccc4c(c3)OCO4)[nH]n2)ccc1O,AC50,[2],0.408 µM (active)
Cc1ccc(NC(=O)CCC(=O)N/N=C/c2ccc(O)cc2)cc1,IC50,[3],51.4 µM (active)
O=C(CN1CCCc2ccccc21)N/N=C/c1ccc(O)cc1O,AC50,[2],2.35 µM (active)
C/C(=N\NC(=O)c1ccc(N/N=C(\C)c2ccncc2)cc1)c1ccncc1,AC50,[2],0.107 µM (active)
Oc1ccc(/C=N/NC(=S)NCc2ccco2)cc1,IC50,[3],35.3 µM (active)
COc1cc(-c2ccc(N)c(OC)c2)ccc1N,IC50,[3],9 µM (active)
COc1ccc([C@@]23Oc4cc(OC)cc(OC)c4[C@]2(O)[C@H](O)[C@H](C(=O)N(C)C)[C@H]3c2ccccc2)cc1 [ROCAGLAMIDE],AC50,[6],0.889 µM (active)
same,AC50,[7],< 0.26 µM (active)

# — ChEMBL document CHEMBL1201862, “PubChem BioAssay data set” (2004)
